Experimental data reported in patent publication US12458647B2, “Macrocyclic derivative and use thereof” (Guangzhou Joyo Pharmatech Co., Ltd., priority 2022, dated 2025).

Experiments:
[1] = test system: human pancreatic cancer PK59 cells; assay: In vivo pharmacodynamic study, PK59 subcutaneous xenograft tumor model in BALB/c nude mice; conditions: gavage once daily
Method: To study the in vivo efficacy of a compound of the present disclosure in BALB/c nude mice subcutaneous xenograft tumor model of human pancreatic cancer PK59 cells.
Laboratory animals: Female BALB/c nude mice, 6-8 weeks old, weighing 18-22 g; supplier. Beijing Vital River Laboratory Animal Technology Co., Ltd.
(1) Cell culture. Human pancreatic cancer PK59 cells were cultured in vitro in a monolayer, and the culture conditions were 10% fetal bovine serum added to Gibco RMPI1640 medium, incubated at 37° C. in a 5% CO2 incubator. Routine passage was performed twice a week with trypsin-EDTA for digestion. When the cell saturation was 80%-90% and the required number was reached, the cells were collected, counted, and inoculated.
(2) Tumour cell inoculation and grouping: 0.2 mL (2×10^6) of PK59 cells (Matrigel was added in a volume ratio of 1:1) was subcutaneously inoculated into the right back of each mouse, and dosing was started when the mean tumor volume reached about 104.4 mm^3, with 6 animals in each group.
The vehicle was 5% DMSO/10% solutol/85% water. Control group: The vehicle was administered via gavage once daily at a dose of 10 μL/g; treatment group: After dissolving the test compound in the vehicle, the compound was administered by gavage once daily.
(3) The tumor diameter was measured with a vernier caliper twice weekly, and the tumor volume (V) was calculated. The formula is: V=0.5a×b^2, where a and b are the long and short diameters of the tumor, respectively. The tumor inhibitory efficacy of the test compound was evaluated by the tumor growth inhibition rate (TGI). The calculation formula is: TGI %=[1−(Mean tumor volume at the end of dosing in a treatment group−Mean tumor volume at the start of dosing in this treatment group)/(Mean tumor volume at the end of treatment in the vehicle control group−Mean tumor volume at the start of treatment in the vehicle control group)×100%.

A375 cell line = assay: In vitro cell proliferation experiment (5 days), A375 (wild-type independent cell line); format: cell-based; conditions: A375, 5 days; read-out: Inhibitory Activity IC50
Method: (§1) RPMI 1640 medium, DMEM, Ham's F12 medium, F12K medium, IMDM and penicillin/streptomycin antibiotics were purchased from Gibco, fetal bovine serum was purchased from Hyclone, Envision multilabel plate reader (PerkinElmer). […]
(§2) The test compound was diluted by 5-fold to 8 concentrations with a pipette, i.e., from 2 mM to 25.6 nM, and replicate wells were set up for the experiment. […] Another cell plate was prepared, and the signal value was read as the maximum value (the maximum value in the following equation) on the day of dosing for data analysis.
(§3) 50 μL of cell viability chemiluminescent detection reagent was added to the cell plate and incubated at room temperature for 30 minutes to stabilize the luminescence signal. A multilabel plate reader was used for reading. […]

NCI—H441 cells = assay: In vitro cell proliferation experiment (5 days), H441; format: cell-based; conditions: H441, 5 days; read-out: Inhibitory Activity IC50
Method: as §1, §2, §3

NCI—H727 cells = assay: In vitro cell proliferation experiment (5 days), H727; format: cell-based; conditions: H727, 5 days; read-out: Inhibitory Activity IC50
Method: as §1, §2, §3

SW620 cells = assay: In vitro cell proliferation experiment (5 days), SW620; format: cell-based; conditions: SW620, 5 days; read-out: Inhibitory Activity IC50
Method: as §1, §2, §3

GP2D cell line = assay: In vitro cell proliferation experiment (5 days, 3D CellTiter-Glo), GP2D; format: cell-based; conditions: read-out: Inhibitory Activity IC50
Method: as §1, §2, §3

Structure (SMILES): CCn1c(-c2cc(N3CCN(C)CC3)cnc2C(C)OC)c2c3cc(ccc31)-c1csc(n1)CC(NC(=O)C1C(C)C1C)C(=O)N1NC(C(=O)OCC(C)(C)C2)C2CC1C2 (single isomer, unassigned) [Compound 6A]
- Tumour Volume (mm^3) Day 1 ([1]; 0.5 mpk): 103.6 mm^3
- Tumour Volume (mm^3) Day 7 ([1]; 0.5 mpk): 111.0 mm^3
- Tumour Volume (mm^3) Day 14 ([1]; 0.5 mpk): 112.4 mm^3
- TGI (%) Day 22 ([1]; 0.5 mpk): 101%
- Tumour Volume (mm^3) Day 22 ([1]; 0.5 mpk): 96.4 mm^3
- Tumour Volume (mm^3) Day 1 ([1]; 2 mpk): 103.5 mm^3
- Tumour Volume (mm^3) Day 7 ([1]; 2 mpk): 64.3 mm^3
- Tumour Volume (mm^3) Day 14 ([1]; 2 mpk): 45.5 mm^3
- TGI (%) Day 22 ([1]; 2 mpk): 107%
- Tumour Volume (mm^3) Day 22 ([1]; 2 mpk): 43.3 mm^3
- Tumour Volume (mm^3) Day 1 ([1]; 5 mpk): 103.8 mm^3
- Tumour Volume (mm^3) Day 7 ([1]; 5 mpk): 65.0 mm^3
- Tumour Volume (mm^3) Day 14 ([1]; 5 mpk): 35.7 mm^3
- TGI (%) Day 22 ([1]; 5 mpk): 108%
- Tumour Volume (mm^3) Day 22 ([1]; 5 mpk): 34.3 mm^3
- IC50 (A375 cell line): > 6000 nM
- IC50 (NCI—H441 cells): 1.4 nM
- IC50 (NCI—H727 cells): 0.4 nM
- IC50 (SW620 cells): 0.2 nM
- IC50 (GP2D cell line): 0.9 nM
